Here are results for 3 molecules from US5013841A, “Oxo quinoline derivatives” (Dainippon Pharmaceutical Co., Ltd., priority 1987, dated 1991).

Converted amounts (≈) assume the structure as drawn. Where two headings read alike, the source gives them in different places.

Data set [1] relates to Streptococcus pneumoniae 1 Neufeld. It counts as in vivo, Streptococcus pneumoniae (male mice, Std-ddY). The conditions noted are these: 336 h, read-out: median effective dose (ED50).
The test system of another data set is S. marcescens IFO 3736. Put plainly: In vitro antibacterial activity (twofold agar-dilution method). It counts as cell-based. The conditions noted are these: Serratia marcescens, IFO3736, 20 h, read-out: minimum inhibitory concentration (MIC). Here is the method:
(§1) The figures in the table show minimum inhibitory concentrations (MIC) (μg/ml), calculated for free base. The minimum inhibitory concentration was determined by the twofold agar-dilution method, which was recommended by Japan Society of Chemotherapy (Chemotherapy, 29(1), 76(1981)), using Muller-Hinton agar. One loopful of an overnight culture of test organisms in Mueller-Hinton broth was inoculated onto 10-ml drug-containing agar layers in petri dishes. Bacterial inocula contained approximately 10^6 colonyl-formingunits. Bacterial growth was observed after 20-hour incubation at 37° C. The MIC was defined as the lowest drug concentration which prevented visible bacterial growth.

In the next data set the test system is Flavobacterium sp P-7201. Described as above. It counts as cell-based. The conditions noted are these: Flavobacterium, P7201, 20 h, read-out: minimum inhibitory concentration (MIC). Here is the method:
as §1

The next data set relates to S. pyogenes Cook. The data set is described as above. It counts as cell-based. The conditions noted are these: Streptococcus pyogenes, 20 h, 37° C., calculated for free base, read-out: minimum inhibitory concentration (MIC). Here is the method: as §1
For another data set, the system named is S. aureus Terajima. The data set is described as above. It counts as cell-based. The conditions noted are these: Staphylococcus aureus, 20 h, read-out: minimum inhibitory concentration (MIC). Here is the method:
as §1

A further data set concerns S. epidermidis No. 8. The data set is described as above. The settings on record: Staphylococcus epidermidis, NO.8, 20 h, read-out: minimum inhibitory concentration (MIC). It counts as cell-based. Here is the method:
as §1

In another data set the test system is E. coli NIHJ JC-2. The description is as above. It counts as cell-based. The conditions noted are these: Escherichia coli, NIHJJC2, 20 h, read-out: minimum inhibitory concentration (MIC). Here is the method: as §1
The test system of a further data set is P. Aeruginosa 12. Described as above. It counts as cell-based. The settings on record: Pseudomonas aeruginosa, 20 h, read-out: minimum inhibitory concentration (MIC). Here is the method:
as §1

Another data set concerns E. coli P-5101. The description is as above. It counts as cell-based. The settings on record: Escherichia coli, P5101, 20 h, read-out: minimum inhibitory concentration (MIC). Here is the method: as §1
Another data set has as its system S. aureus 209 JC-1. The data set is described as above. It counts as cell-based. The settings on record: Staphylococcus aureus, 209JC1, 20 h, read-out: minimum inhibitory concentration (MIC). Here is the method: as §1
In a further data set the test system is S. aureus No. 80. The description is as above. It counts as cell-based. The settings on record: Staphylococcus aureus, NO.80, 20 h, read-out: minimum inhibitory concentration (MIC). Here is the method:
as §1

Data set [2] has as its system Streptococcus pyogenes A65. The conditions noted are these: A65, in Mus musculus, po, 168 h, read-out: median effective dose (ED50).
The nature of data set [3]: Urinary excretion in mice (thin-layer cup-plated method, Escherichia coli Kp indicator). It counts as in vivo. The settings on record: mouse, urine, oral, 5 mg/kg, read-out: Urinary recovery for 24 hours. Here is the method: A suspension containing each of compounds was orally administered to mice at a dose of 5 mg/kg. Urine was collected over a period of 24 hours after adminstration. The levels of the compounds in urine were determined by the thin-layer cup-plated method using Escherichia coli Kp as an indicator organism.

A further data set relates to M. pneumoniae Mac. Put plainly: Antimycoplasma activity (twofold agar dilution method). It counts as cell-based, Mycoplasma pneumoniae. The conditions noted are these: Mycoplasmoides pneumoniae, 168 h, read-out: minimum inhibitory concentration (MIC). Here is the method: (§2) The figures in the table show minimum inhibitory concentrations (MIC), (μg/ml), calculated for free base.
(§3) Minimum inhibitory concentrations (MIC) were determined by the twofold agar dilution method. The media used were Chanock broth and agar PPLD broth and agar (Difco) supplemented with 20% horse serum and 10% fresh yeast extract). A 2-3 day broth culture of organisms was diluted with Chanock broth to a cell density of about 10^6 cells/ml. One loopful (about […]) of the organism dilution was spotted onto 10-ml drug containing Chanock agar in petri dishes using a multiple inoculator (Cathra International). The petri dishes were incubated at 37° C. for 7 and 2 days for Mycoplasma pneumoniae and other Mycoplasma spp. respectively. Incubation was performed anaerobically using the Gaspak anaerobic system (BBL) for M. buccale, M. fermentans, M. hominis, M. orale and M. salivarium, and aerobically for other Mycoplasma spp. The MIC was defined as the lowest compound concentration at which no growth of organism was detected.
(In agar dilution, organisms are placed on agar that contains the substance at set levels.)

The next data set deals with M. arginini G-230. Described as above. It counts as cell-based. The conditions noted are these: 48 h, read-out: minimum inhibitory concentration (MIC). Here is the method: as §2, §3
In another data set the test system is A. laidlawii PG-8. The data set is described as above. It counts as cell-based. The settings on record: Acholeplasma laidlawii, PG8, 48 h, read-out: minimum inhibitory concentration (MIC). Here is the method:
as §2, §3

In the next data set the test system is M. buccale CH-20249. The description is as above. It counts as cell-based. The conditions noted are these: 48 h, read-out: minimum inhibitory concentration (MIC). Here is the method: as §2, §3
A further data set relates to M. orale CH-19299. The data set is described as above. It counts as cell-based. The conditions noted are these: 48 h, read-out: minimum inhibitory concentration (MIC). Here is the method:
as §2, §3

The next data set concerns M. hyorhinis BST-7. Described as above. It counts as cell-based. The conditions noted are these: Mesomycoplasma hyorhinis, BST7, 48 h, read-out: minimum inhibitory concentration (MIC). Here is the method:
as §2, §3

The test system of a further data set is M. salivarium PG-20. The data set is described as above. The conditions noted are these: 48 h, read-out: minimum inhibitory concentration (MIC). It counts as cell-based. Here is the method: as §2, §3
Another data set relates to M. fermentans PG-18. Described as above. It counts as cell-based. The settings on record: Mycoplasmopsis fermentans, PG18, 48 h, read-out: minimum inhibitory concentration (MIC). Here is the method: as §2, §3
The next data set concerns M. hominis PG-21. Described as above. It counts as cell-based. The settings on record: Metamycoplasma hominis, PG21, 48 h, read-out: minimum inhibitory concentration (MIC). Here is the method:
as §2, §3

For data set [4], the system named is Staphylococcus aureus 50774. It counts as in vivo, Staphylococcus aureus (male mice, Std-ddY). The settings on record: Staphylococcus aureus, 50774, po, 336 h, read-out: median effective dose (ED50). From the text: Staphylococcus aureus 50774
Intravenous infection with 5×10^8 cells per mouse suspended in saline.
For 7 days for other organisms.

Data set [5] concerns C. Trachomatics G/ur 1317. Put plainly: Antichlamydia activity (inclusion bodies in McCoy cells). The settings on record: 36° C., 40-48 h, calculated for free base, read-out: minimum inhibitory concentration (MIC). It counts as cell-based. Here is the method: (§4) Minimum inhibitory concentrations (MIC) were determined as follows. McCoy cells were freshly cultured in Eagle's minimum essential medium (EMEM) (Flow) supplemented with 4% fetal bovine serum and 0.03% L-glutamine. The cells were trypsinized and suspended in the same culture medium at a cell concentration of 1-2×10^5 cells/ml. One ml of the cell suspension was pipetted into flat-bottomed plastic tubes (14 mm in diameter) containing a cover slip (12 mm in diameter). The tubes were incubated in 5% CO2 -air at 36° C. for 20 hours. One-half ml of a chlamydial suspension (ca. 1-4×10^3 inclusion body forming units) was added into each tube, which was then centrifuged at 1500×g for 60 minutes. The tubes were incubated for 1 hour at 36° C. The medium was changed with 1 ml of EMEM supplemented with 8% fetal bovine serum, 0.03% L-blutamine, 1μg/ml cycloheximide and 0.5% glucose, and containing drugs at various concentrations. After further incubation at 36° C. for 40-48 hours, the cells on the cover glasses were stained with the Giemsa's solution. […] The MIC was defined as the lowest drug concentration where there were no inclusion bodies in all the cells on the cover slip.

Data set [6] deals with C. Trachomatics G/ur 1467. The description is as above. It counts as cell-based. The settings on record: 36° C., 40-48 h, calculated for free base, read-out: minimum inhibitory concentration (MIC). Here is the method: as §4
In another data set the test system is C. Trachomatics G/ur 931. The description is as above. The conditions noted are these: 36° C., 40-48 h, calculated for free base, read-out: minimum inhibitory concentration (MIC). It counts as cell-based. Here is the method: as §4
Data set [7] deals with C. Trachomatics G/ur 1483. Described as above. The settings on record: 36° C., 40-48 h, calculated for free base, read-out: minimum inhibitory concentration (MIC). It counts as cell-based. Here is the method:
as §4

Turning to `Nc1c(F)c(N2CCNCC2)c(F)c2c1c(=O)c(C(=O)O)cn2C1CC1` [Compound B, 5-amino-1-cyclopropyl-6,8-difluoro-7-(1-piperazinyl)-1,4-dihydro-4-oxoquinoline-3-carboxylic acid, reference compound], the ED50 in [1] (mice, oral, four times (immediately, 6, 24 and 30 h after intraperitoneal infection), 14 days, calculated for free base) is 20.8 mg/kg; in [2] it was > 50 mg/kg. The MIC with S. marcescens IFO 3736 is 0.1 µg/mL (≈ 0.274 µM); in the data set with Flavobacterium sp P-7201, 0.1 µg/mL (≈ 0.274 µM); in the data set on S. pyogenes Cook it was 0.2 µg/mL (≈ 0.549 µM); in the data set with S. aureus Terajima (S. aureus Terajima, agar dilution, 37° C., calculated for free base), 0.025 µg/mL (≈ 0.0686 µM); in the data set with S. epidermidis No. 8, 0.05 µg/mL (≈ 0.137 µM); in the data set with E. coli NIHJ JC-2, 0.0063 µg/mL (≈ 0.0173 µM). For the same molecule, the MIC in the data set on P. Aeruginosa 12 was determined as 0.1 µg/mL (≈ 0.274 µM); with E. coli P-5101, 0.0063 µg/mL (≈ 0.0173 µM); in the data set on S. aureus 209 JC-1 it was 0.05 µg/mL (≈ 0.137 µM); in the data set with S. aureus No. 80 it was 0.05 µg/mL (≈ 0.137 µM).

Take `CC1CN(c2c(F)c(N)c3c(=O)c(C(=O)O)cn(C4CC4)c3c2F)CC(C)N1` (centres unmarked) [Compound C, 5-amino-1-cyclopropyl-6,8-difluoro-7-(3,5-dimethyl-1-piperazinyl)-1,4-dihydro-4-oxoquinoline-3-carboxylic acid, reference compound]: in [3], the dose excreted at 24 h amounted to 4.51%.

In the case of `O=C(O)c1cn(C2CC2)c2cc(N3CCNCC3)c(F)cc2c1=O` [Compound A, reference compound], the ED50 came to 31.3 mg/kg in [1] (po) and 8.24 mg/kg in data set [4]. For the same molecule, the MIC in the data set with M. pneumoniae Mac is 0.78 µg/mL (≈ 2.35 µM); with S. marcescens IFO 3736, 0.05 µg/mL (≈ 0.151 µM); with Flavobacterium sp P-7201 it was 0.39 µg/mL (≈ 1.18 µM); with S. pyogenes Cook, 0.2 µg/mL (≈ 0.604 µM); in the data set on S. aureus Terajima it was 0.1 µg/mL (≈ 0.302 µM); in the data set with S. epidermidis No. 8, 0.1 µg/mL (≈ 0.302 µM). The MIC turned out to be 0.0063 µg/mL (≈ 0.019 µM) in the data set on E. coli NIHJ JC-2; 0.1 µg/mL (≈ 0.302 µM) in the data set on P. Aeruginosa 12; 0.0063 µg/mL (≈ 0.019 µM) in the data set on E. coli P-5101; 0.1 µg/mL (≈ 0.302 µM) in the data set with S. aureus 209 JC-1; 0.39 µg/mL (≈ 1.18 µM) in the data set on S. aureus No. 80; 0.39 µg/mL (≈ 1.18 µM) in the data set on M. arginini G-230. Also, the MIC with A. laidlawii PG-8 turned out to be 0.39 µg/mL (≈ 1.18 µM); in the data set with M. buccale CH-20249, 0.39 µg/mL (≈ 1.18 µM); in the data set on M. orale CH-19299, 1.56 µg/mL (≈ 4.71 µM); in the data set on M. hyorhinis BST-7, 0.39 µg/mL (≈ 1.18 µM); in the data set with M. salivarium PG-20, 3.13 µg/mL (≈ 9.45 µM); with M. fermentans PG-18 it was 0.2 µg/mL (≈ 0.604 µM). In addition, the MIC is 1.56 µg/mL (≈ 4.71 µM) with M. hominis PG-21; 2 µg/mL (≈ 6.04 µM) in [5]; 1 µg/mL (≈ 3.02 µM) in [6]; 1 µg/mL (≈ 3.02 µM) in the data set with C. Trachomatics G/ur 931; 1 µg/mL (≈ 3.02 µM) in data set [7].

In general, ED50 refers to the midpoint of the dose-response relation.
